The values below come from patent publication US20200384079A1, “Compositions of Fibroblast Growth Factor LIgands and Methods of Treating Patients Undergoing Ischemia-Reperfusion Therapy” (University of Cincinnati, priority 2017, published 2020).

Broadly, the Kd is a measure of binding affinity in units of concentration. Lower therefore signals tighter binding.

“Also recorded” adds a separate entry of the source. Read-outs that look alike come from different tables or passages of the source.

The target of series [1] is FGFR3c ectodomain (extracellular ligand binding domain of FGFR3c) (UniProt P22607). Nature of the series: ITC; FGF1^ΔHBS injected into FGFR3c ectodomain in the cell.
For series [2], the system named is in vivo rat model of myocardial infarction. Briefly: In vivo rat ischemia-reperfusion model, infarct size (TTC). On the set-up: species or system Sprague Dawley rats. Particulars: for effect on infarct size / cardioprotection (in words): FGF given at reperfusion with heparin co-therapy; for reduction in infarct size compared to saline/vehicle control: given i.v. at reperfusion alone (FGF 10 μg/kg; heparin 12 U/kg/hr); for effect on infarct size (in words): given at reperfusion, no heparin co-therapy. The procedure:
CVR-2016-799R1 signaling and the other two sets were to evaluate the pharmacokinetic properties of native FGF1 and modified FGF1 (FGF1^ΔHBS). The first set of experiments was for the ischemia/reperfusion study in which animals were divided into six groups as follows: (1) saline group: saline treatment given intravenously for 10 minutes immediately upon reperfusion, (2) heparin group: heparin, 60 U/kg intravenous (i.v.) bolus, given immediately at reperfusion+12 U/kg/hr i.v. infusion for 120 minutes of reperfusion, (3) FGF1 group: FGF1, 10 μg/kg i.v. infusion, given for 10 minutes immediately at reperfusion, (4) FGF1+heparin: heparin, 60 U/kg bolus, given immediately upon reperfusion followed by FGF1, 10 μg/kg i.v. infusion, given for 10 minutes and 12 U/kg/hr i.v. infusion given for 110 minutes of reperfusion, (5) modified FGF1 (FGF1^ΔHBS) group: FGF1^ΔHBS, 10 μg/kg i.v. infusion, given for 10 minutes, or (6) FGF1^ΔHBS+heparin: heparin, 60 U/kg bolus, given immediately at reperfusion followed by FGF1^ΔHBS, 10 μg/kg i.v. infusion, given for 10 minutes and 12 U/kg/hr i.v. infusion for 110 minutes of reperfusion. All rats were subjected to 30 minutes of regional ischemia and 120 minutes of reperfusion. Drugs were administered at the onset of reperfusion via the jugular vein (FIG. 2A). […] A total of ninety-six rats was completed for the I/R study. Sample size for each group ranged from 9-16 depending on the power analysis. A total of thirty-five rats were excluded from the study based on the lack of cyanosis of the heart or typical elevation of the ST segment in the electrocardiogram during ischemia, and death from malignant arrhythmia. For the biodistribution or FGF1 signaling study, rats were randomly divided into six groups as described above (FIG. 2B). Following drug treatment (immediately following 15 minutes of treatment or 105 minutes post-treatment at the point which mimics the length of time of reperfusion), solid organs and blood (see sections “Tissue collection for exogenous FGF1 biodistribution” and “Cardiac preparation to detect the activation of FGF1 downstream molecules”) were collected. A total of 33 rats were used for biodistribution and FGF1 signaling studies, and 3 rats were excluded due to anesthetic overdose. Also, a total of 8 plasma samples were excluded because of hemolysis. For elimination half-life of native FGF1 and FGF1^ΔHBS, 12 rats were randomly divided into two groups and treated intraperitoneally with either FGF1 form as described in the section “Pharmacokinetic evaluation of exogenous FGF1 or FGF1^ΔHBS ”.
The in vivo I/R model was established by ligating and loosening the left anterior CVR-2016-799R1 descending artery (LAD) previously described by our laboratory. In brief, rats were anesthetized with thiobutabarbital sodium salt hydrate, Inactin® hydrate (100 mg/kg, i.p., Sigma-Aldrich), and intubated and artificially ventilated via a rodent respirator (respiratory rate: 75 strokes/minute; tidal volume: 3 mL; Model 683, Harvard, USA). The heart was exposed through a left thoracotomy and pericardiotomy, and a 6-0 silk suture was placed around the left anterior descending (LAD) coronary artery. After equilibration for 15 minutes, hearts were subjected to 30 minutes of ischemia by ligating the LAD via a snare occluder and reperfusion occurred for 120 minute via loosening the snare occluder. The appearance of cyanosis of the heart and significant ST-segment elevation in the electrocardiogram were used to verify successful ligation.
At the end of the ischemia-reperfusion injury study, the LAD was re-occluded with the suture used previously for the establishment of ischemia. 5% Evans blue dye solution was given via the jugular vein to define the area-at-risk (AAR). Then, the heart was arrested in diastole with 1 mL of 15% potassium chloride, and the animal was euthanized with an anesthetic overdose followed by a bilateral pneumothorax for removal of the heart. […]

For series [3] the test system is unchanged. Particulars: rat; for post-ischemic cardiac function (in words): given at reperfusion, no heparin co-therapy.
The nature of series [4]: Blood clotting time (tail nick). Type of series: in vivo, rat. Particulars: for Clotting time: 15 mins post treatment, single agent. The procedure:
In sets of experiments, blood clotting time was detected at baseline and 15 minutes after drug treatment. In brief, a nick 1-2 mm depth was made at 5 cm and 3 cm of the proximal tail for baseline and post-drug blood clotting time, respectively; the tail nick was blotted with 4×4 gauze every 15 seconds until bleeding totally stopped, and blood clotting time was recorded from the onset of bleeding until it stopped.
Heparan sulfate proteoglycans or heparin regulates the bioavailability of FGFs. In order to develop a “cardioprotective” FGF as a therapeutic against ischemic heart disease, it was necessary to elucidate the efficacy of these cardiac FGFs in the presence of heparin treatment. Therefore, native rhFGFs (FGF 1, 2, 4, or 5) or vehicle are infused intravenously (at dose indicated above) in conjunction with unfractionated (12 units/kg/hr, i.v.) or low molecular weight heparin (enoxaparin 1 mg·kg, s.c.) during the first 15 minutes of reperfusion (FIG. 12A), and post-ischemic recovery of cardiac function and the degree of myocardial infarction is assessed. […] Unfractionated or low molecular weight heparin is administered alone during early reperfusion to elucidate the cardioprotective effects of heparins against IR injury. Whether FGF administration alters heparin activity is evaluated. To assess this potential interaction, activated clotting time (ACT) is assessed in vehicle-treated or FGF-treated groups in the absence or presence of heparin co-administration. Baseline and 15 minute post-drug treatment ACT is determined. It has been established that a heparin response occurs within 1 minute after an intravenous dose in humans and that no more time is required to achieve a predicted ACT.

A further series concerns wildtype mouse hearts. Nature of the series: Ex vivo model, low-flow ischemia and reperfusion. As to conditions: treatment at reperfusion, mouse hearts. The text has this:
FIGS. 12A-12B. […] Left bar is vehicle-treated and right bar is FGF2-treated wildtype mouse hearts.

For a further series, the system named is trypsin. Nature of the series: Susceptibility to proteolytic degradation by trypsin (fluorescence emission). Type of series: in vitro ADME. How it is done:
Ligand bioavailability (i.e., pharmacokinetic mechanism) can be a significant pharmacological limitation for therapeutic applicability. […] Susceptibility to protease action of FGF1^ΔTS was determined by monitoring changes in fluorescence emission during degradation by trypsin, FGF1^ΔTS (20-fold increase) and FGF2 (7-fold increase) were more resistant to proteolytic degradation than the native FGF1. It remained to be elucidated as to whether these pharmacokinetic mechanisms I.e., bioavailability and/or half-life) were enhanced in vivo as well. Therefore, detection of the bioavailability and half-life of native and thermally stable mutated ligands (FGF^ΔTS) are carried out as follows: […]

For series [5] the following is noted: rat, i.v.
The test system of a further series is ERK1/2. Briefly: ERK1/2 activation (phosphorylation) in left ventricle, immunoblot. As to conditions: immediately post-treatment, no FGF+heparin co-treatment. Type of series: in vivo, rat. How it is done:
Hearts from rats treated with saline, native FGF1 or FGF1^ΔHBS in the presence or absence of heparin were collected immediately after administration and at 120 minutes post-treatment for evaluation of downstream signaling. One-half of each snap-frozen heart was powdered and homogenized in protein extraction buffer as previously described by our laboratory. For FGFR1, 150 μg of total protein were loaded onto a 8% SDS-PAGE gel, for ERK1/2 activation, 20 μg of whole cell protein homogenate was loaded onto a 15% SDS-PAGE gel, and for PKCα and PKCδ, […] of whole cell protein homogenate was loaded onto a 10% SDS-PAGE gel and then transferred to nitrocellulose membrane. 0.1% Ponceau S in 5% acetic acid was used to examine the transfer efficiency and loading equality as described previously 43. Membranes were blocked with 5% dry milk and then incubated with primary antibody against phospho-FGFR1 (Y-654, 1:500, Cell Signaling), phospho-ERK1/2 (1:1000, Cell Signaling) or phospho-PKCα (1:500, Santa Cruz) or phospho-PKCδ (1:500, Santa Cruz) followed by incubation with HRP-conjugated secondary goat anti-rabbit antibody (1:3000, Santa Cruz Biotechnology). Membranes were stripped and reprobed with antibodies against total FGFR1 (1:500, Cell Signaling), total ERK (1:1000, BD Transduction Labs) or total PKCα (1:500, Santa Cruz) or PKCδ (1:500, Santa Cruz). Bound antibodies were visualized by ECL system. Activation is indicated as a ratio of phosphorylated protein/total protein. β-actin (1:1000, Cell Signaling) was also used as a loading control.
Construction of his-tagged native and heparin-binding modified rhFGFs as well as their expression and purification is performed as previously described using his-tagged expression vectors and nickel-nitrilotriacetic acid resin columns. […] His-tagged FGFs are detected in solid organs by ELISA (FIG. 14) both for FGF and histidine (data not shown), and immunoprecipitation (IP) followed by immunoblot and in plasma by ELISA as described previously. His-tags are widely used because they are small and rarely interfere with function, activity, or structure of target proteins. […] There is no observed difference in total ERK or FGFR1 expression between the treatment groups.

Series [6] concerns the target FGFR3c ectodomain (extracellular ligand binding domain of FGFR3c) (UniProt P22607). Nature of the series: ITC; FGF1 injected into FGFR3c ectodomain in the cell. For orientation: Isothermal titration calorimetry measures the heat released or taken up as one component is titrated into another.
Where [7] appears, read: rat, 30 min ischemia/120 min reperfusion, given i.v. at reperfusion alone (FGF 10 μg/kg; heparin 60 U/kg bolus + 12 U/kg/hr).

Turning to “FGF1^ΔHBS (FGF1 carrying the K127D/K128Q/K133V triple mutation in its HS-binding site) (from UniProt P05230 1-155) (ligand)”, the Kd in series [1] amounted to 432 nM.

Turning to “FGF2: native recombinant human fibroblast growth factor 2”, the results for the “infarct size (% infarct, percentage of area-at-risk)” value in series [2] (as E6 but FGF 10 μg/kg i.v. in the presence of heparin co-administration) and in [2] (setting [7]) were 46% and 26%, respectively. The “effect on infarct size / cardioprotection (in words)” value is “significantly inhibited FGF2's reduction in infarct size” in [2] (rat) and “significantly inhibited rhFGF2-induced cardioprotection against MI” in series [2] (rat, listed as rhFGF2). Moreover, the “reduction in infarct size compared to saline/vehicle control” value is 57% in series [2] (rat) and 70% in series [2] (rat, listed as RhFGF2). Moreover, the “recovery of left ventricular (LV) developed pressure, % of baseline” value in series [3] (FGF2 at reperfusion) is 68%. For the same substance, the “post-ischemic cardiac function (in words)” value in [3] is recorded as “protects the heart from cardiac dysfunction; also recorded: improved relaxation compared to saline treatment”. Further, the Clotting time in series [4] is 15 mins post rhFGF2 treatment: 192 +/− 120 sec (n = 5). Further, the “cardioprotection in ex vivo model (in words)” value with wildtype mouse hearts was “protects the heart from post-ischemic cardiac dysfunction and myocardial infarction”. Moreover, in the series with trypsin, the “increase in proteolytic resistance compared to native FGF1” value is recorded as 7 fold. Moreover, the “tissue and plasma FGF distribution (in words)” value is listed as “no longer targeted to the heart” in series [5] (FGF with heparin co-administration); “increased biodistribution heart (left ventricle)” in series [5] (no FGF+heparin co-treatment); “significantly targeted to the heart” in series [5] (no FGF+heparin co-treatment, listed as native FGF2).

For Heparin sodium [reference compound], the “infarct size (% infarct, percentage of area-at-risk)” value in [2] (setting [7]) is given as 46%. In addition, the “effect on infarct size (in words)” value in [2] (rat) is on record as “lowered infarct size but not to the degree of FGF2 treatment; also recorded: significantly reduced infarct size compared to saline”; in series [2] (rat, listed as Heparin) it was “reduced infarct size somewhat, but not to the degree of FGF2 treatment”. In addition, the “reduction in infarct size compared to saline/vehicle control” value in [2] (rat) amounted to 31%. For the same substance, the “post-ischemic cardiac function (in words)” value in series [3] was “no significant difference in post-ischemic contractility between the saline and heparin group”. For the same substance, the Clotting time in series [4] is reported as 15 mins post-heparin treatment: 737 +/− 127 sec (n = 4). Moreover, in series [4] (baseline vs 15 minutes after drug treatment), the “blood clotting time post-treatment (in words)” value was “significantly longer post-treatment than at baseline”. The “ERK1/2 activation (phosphorylation) in left ventricle (in words)” value in the series with ERK1/2 is recorded as “not different than saline treatment”. Also, the “tissue and plasma FGF distribution (in words)” value in [5] (no FGF+heparin co-treatment) is “no difference in saline or heparin treatment with regard to FGF1 levels”.

In the case of “bisindolylmaleimide [GF109203X, reference compound]”, in series [2] (rat, 1 mg/kg i.v., with FGF2, 1 mg/kg), the “effect of PKC inhibitor on FGF2-induced cardioprotection (infarct size)” value is “abrogates the FGF2-induced cardioprotective effects of reduced myocardial infarct size; also recorded: abolished FGF2-induced cardioprotection”.

Take “native FGF1 (recombinant human fibroblast growth factor 1) (from UniProt P05230 16-155) (ligand)”: in series [6], the Kd was found to be 704 nM.
